Data published in patent US9937151B2, “Carbapenem antibacterials with gram-negative activity” (priority 2010, dated 2018).
≈ marks a conversion by molar mass, not a printed value.

System: G(−) bacterial strains
Assay: Dilution antimicrobial susceptibility tests (MIC, NCCLS agar dilution / broth dilution)
Format: cell-based, Gram-negative organisms
Conditions: unit assumed
Procedure, shortened: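 Agar dilution on Mueller-Hinton agar at 10^4 CFU/spot and broth dilution at 5×10^5 CFU/well, per NCCLS M7-A5. Streptococci tested on Mueller-Hinton agar with 5% sheep blood. MIC taken as minimum inhibitory concentration; ATCC control strains run alongside.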

[1] = strain #1 Acinetobacter calcoaceticus
[2] = strain #2 Acinetobacter baumannii, Cf-R, Ci-R
[3] = strain #3 Acinetobacter baumannii, Cf-R, Ci-R, Mp-I
[4] = strain #4 Acinetobacter baumannii, Cf-R, Imp-I, CBPase
[5] = strain #7 Enterobacter aerogenes
[6] = strain #8 Enterobacter cloacae, Cf-R, B+
[7] = strain #9 Enterobacter cloacae, Cf-R
[8] = strain #10 Escherichia coli, Ci-R
[9] = strain #11 Escherichia coli, Ci-R, AmpC
[10] = strain #15 Klebsiella pneumoniae
[11] = strain #16 Moraxella catarrhalis
[12] = strain #21 Providencia rettgeri
[13] = strain #22 Salmonella typhimurium
[14] = strain #25 Shigella dysenteriae
[15] = strain #28 Stenotrophomonas maltophilia
[16] = strain #29 Pseudomonas aeruginosa
[17] = strain #30 Pseudomonas aeruginosa
[18] = strain #31 Pseudomonas aeruginosa, Ofx-R
[19] = strain #32 Pseudomonas aeruginosa, Cf-R
[20] = strain #33 Pseudomonas aeruginosa, Ci-R
[21] = strain #34 Pseudomonas aeruginosa, Gen-R
[22] = strain #35 Pseudomonas aeruginosa, Ip-R
[23] = strain #36 Pseudomonas aeruginosa, Cf-R, Ci-R, Mp-R

SMILES | MIC [1] [µg/mL] | MIC [2] [µg/mL] | MIC [3] [µg/mL] | MIC [4] [µg/mL] | MIC (strain #5 Citrobacter diversus) [µg/mL] | MIC (strain #6 Citrobacter freundii) [µg/mL] | MIC [5] [µg/mL] | MIC [6] [µg/mL] | MIC [7] [µg/mL] | MIC [8] [µg/mL] | MIC [9] [µg/mL] | MIC (strain #12 Escherichia coli) [µg/mL] | MIC (strain #13 Escherichia coli) [µg/mL] | MIC (strain #14 Klebsiella oxytoca) [µg/mL] | MIC [10] [µg/mL] | MIC [11] [µg/mL] | MIC (strain #17 Morganella Morganii) [µg/mL] | MIC (strain #18 Morganella Morganii) [µg/mL] | MIC (strain #19 Proteus vulgaris) [µg/mL] | MIC (strain #20 Proteus mirabilis) [µg/mL] | other results
C[C@@H](O)C1C(=O)N2C(C(=O)O)=C(CN3CC[C@H](N)C3)[C@H](C)C12 (stereo partly shown) [Compound 27] | 0.25 (≈ 0.808 µM) | 0.5 (≈ 1.62 µM) | 2 (≈ 6.46 µM) | 1 (≈ 3.23 µM) | 0.25 (≈ 0.808 µM) | 0.25 (≈ 0.808 µM) | 1 (≈ 3.23 µM) | 0.25 (≈ 0.808 µM) | 0.5 (≈ 1.62 µM) | 0.25 (≈ 0.808 µM) | 0.25 (≈ 0.808 µM) | 0.25 (≈ 0.808 µM) | 0.25 (≈ 0.808 µM) | 0.5 (≈ 1.62 µM) | 0.5 (≈ 1.62 µM) | ≤ 0.008 | 4 (≈ 12.9 µM) | 2 (≈ 6.46 µM) | 1 (≈ 3.23 µM) | 0.25 (≈ 0.808 µM) | MIC [12]: 1 µg/mL (≈ 3.23 µM); MIC [13]: 0.25 µg/mL (≈ 0.808 µM); MIC (strain #23 Serratia marcescens): 0.5 µg/mL (≈ 1.62 µM); MIC (strain #24 Serratia marcescens): 1 µg/mL (≈ 3.23 µM); MIC [14]: 0.5 µg/mL (≈ 1.62 µM); MIC (strain #26 Shigella sonnei): 0.25 µg/mL (≈ 0.808 µM); MIC (strain #27 Shigella flexneri): 0.13 µg/mL (≈ 0.42 µM); MIC [15]: 0.13 µg/mL (≈ 0.42 µM); MIC [16]: 2 µg/mL (≈ 6.46 µM); MIC [17]: 2 µg/mL (≈ 6.46 µM); MIC [18]: 0.5 µg/mL (≈ 1.62 µM); MIC [19]: 2 µg/mL (≈ 6.46 µM); MIC [20]: 2 µg/mL (≈ 6.46 µM); MIC [21]: 2 µg/mL (≈ 6.46 µM); MIC [22]: 4 µg/mL (≈ 12.9 µM); MIC [23]: 8 µg/mL (≈ 25.9 µM)
C[C@@H](O)C1C(=O)N2C(C(=O)O)=C(CN3CC[C@H](NC(=O)CNS(N)(=O)=O)C3)[C@H](C)C12 (stereo partly shown) [Compound 163] | 2 (≈ 4.49 µM) | 4 (≈ 8.98 µM) | 8 (≈ 18 µM) | 16 (≈ 35.9 µM) | 0.5 (≈ 1.12 µM) | 1 (≈ 2.24 µM) | 2 (≈ 4.49 µM) | 0.5 (≈ 1.12 µM) | 1 (≈ 2.24 µM) | 0.5 (≈ 1.12 µM) | 0.5 (≈ 1.12 µM) | 0.5 (≈ 1.12 µM) | 0.5 (≈ 1.12 µM) | 1 (≈ 2.24 µM) | 1 (≈ 2.24 µM) | ≤ 0.008 | 8 (≈ 18 µM) | 8 (≈ 18 µM) | 4 (≈ 8.98 µM) | 0.5 (≈ 1.12 µM) | MIC [12]: 1 µg/mL (≈ 2.24 µM); MIC [13]: 0.5 µg/mL (≈ 1.12 µM); MIC (strain #23 Serratia marcescens): 2 µg/mL (≈ 4.49 µM); MIC (strain #24 Serratia marcescens): 2 µg/mL (≈ 4.49 µM); MIC [14]: 1 µg/mL (≈ 2.24 µM); MIC (strain #26 Shigella sonnei): 0.5 µg/mL (≈ 1.12 µM); MIC (strain #27 Shigella flexneri): 0.5 µg/mL (≈ 1.12 µM); MIC [15]: 1 µg/mL (≈ 2.24 µM)
C[C@@H](O)C1C(=O)N2C(C(=O)O)=C(CN3CC[C@@H](C(N)=O)C3)[C@H](C)C12 (stereo partly shown) [Compound 115] | 0.5 (≈ 1.48 µM) | 1 (≈ 2.96 µM) | 2 (≈ 5.93 µM) | 1 (≈ 2.96 µM) | 0.25 (≈ 0.741 µM) | 0.25 (≈ 0.741 µM) | 1 (≈ 2.96 µM) | 0.13 (≈ 0.385 µM) | 0.25 (≈ 0.741 µM) | 0.25 (≈ 0.741 µM) | 0.25 (≈ 0.741 µM) | 0.25 (≈ 0.741 µM) | 0.25 (≈ 0.741 µM) | 0.25 (≈ 0.741 µM) | 0.5 (≈ 1.48 µM) | ≤ 0.008 | 2 (≈ 5.93 µM) | 2 (≈ 5.93 µM) | 1 (≈ 2.96 µM) | 0.25 (≈ 0.741 µM) | MIC [12]: 1 µg/mL (≈ 2.96 µM); MIC [13]: 0.25 µg/mL (≈ 0.741 µM); MIC (strain #23 Serratia marcescens): 0.5 µg/mL (≈ 1.48 µM); MIC (strain #24 Serratia marcescens): 1 µg/mL (≈ 2.96 µM); MIC [14]: 0.25 µg/mL (≈ 0.741 µM); MIC (strain #26 Shigella sonnei): 0.25 µg/mL (≈ 0.741 µM); MIC (strain #27 Shigella flexneri): 0.25 µg/mL (≈ 0.741 µM); MIC [15]: 0.25 µg/mL (≈ 0.741 µM); MIC [16]: 4 µg/mL (≈ 11.9 µM); MIC [17]: 4 µg/mL (≈ 11.9 µM); MIC [18]: 1 µg/mL (≈ 2.96 µM); MIC [19]: 4 µg/mL (≈ 11.9 µM); MIC [20]: 8 µg/mL (≈ 23.7 µM); MIC [21]: 8 µg/mL (≈ 23.7 µM); MIC [22]: 8 µg/mL (≈ 23.7 µM); MIC [23]: > 32 µg/mL
C[C@@H](O)C1C(=O)N2C(C(=O)O)=C(CN3CC(NS(N)(=O)=O)C3)[C@H](C)C12 (stereo partly shown) [Compound 58] | 0.5 (≈ 1.34 µM) | 2 (≈ 5.34 µM) | 4 (≈ 10.7 µM) | 2 (≈ 5.34 µM) | 0.13 (≈ 0.347 µM) | 0.25 (≈ 0.668 µM) | 0.5 (≈ 1.34 µM) | 0.13 (≈ 0.347 µM) | 0.25 (≈ 0.668 µM) | 0.13 (≈ 0.347 µM) | 0.13 (≈ 0.347 µM) | 0.13 (≈ 0.347 µM) | 0.25 (≈ 0.668 µM) | 0.25 (≈ 0.668 µM) | 0.25 (≈ 0.668 µM) | ≤ 0.008 | 1 (≈ 2.67 µM) | 1 (≈ 2.67 µM) | 0.5 (≈ 1.34 µM) | 0.25 (≈ 0.668 µM) | MIC [12]: 0.5 µg/mL (≈ 1.34 µM); MIC [13]: 0.25 µg/mL (≈ 0.668 µM); MIC (strain #23 Serratia marcescens): 0.5 µg/mL (≈ 1.34 µM); MIC (strain #24 Serratia marcescens): 0.5 µg/mL (≈ 1.34 µM); MIC [14]: 0.25 µg/mL (≈ 0.668 µM); MIC (strain #26 Shigella sonnei): 0.25 µg/mL (≈ 0.668 µM); MIC (strain #27 Shigella flexneri): 0.13 µg/mL (≈ 0.347 µM); MIC [15]: 0.25 µg/mL (≈ 0.668 µM); MIC [16]: 8 µg/mL (≈ 21.4 µM); MIC [17]: 8 µg/mL (≈ 21.4 µM); MIC [18]: 4 µg/mL (≈ 10.7 µM); MIC [19]: 8 µg/mL (≈ 21.4 µM); MIC [20]: 8 µg/mL (≈ 21.4 µM); MIC [21]: 8 µg/mL (≈ 21.4 µM); MIC [22]: 16 µg/mL (≈ 42.7 µM); MIC [23]: 32 µg/mL (≈ 85.5 µM)
C[C@@H](O)C1C(=O)N2C(C(=O)O)=C(CN3CC[C@H](NS(N)(=O)=O)C3)[C@H](C)C12 (stereo partly shown) [Compound 72] | 1 (≈ 2.57 µM) | 2 (≈ 5.15 µM) | 4 (≈ 10.3 µM) | 4 (≈ 10.3 µM) | 0.5 (≈ 1.29 µM) | 0.5 (≈ 1.29 µM) | 1 (≈ 2.57 µM) | 0.25 (≈ 0.644 µM) | 1 (≈ 2.57 µM) | 0.25 (≈ 0.644 µM) | 0.25 (≈ 0.644 µM) | 0.25 (≈ 0.644 µM) | 0.5 (≈ 1.29 µM) | 1 (≈ 2.57 µM) | 0.5 (≈ 1.29 µM) | 0.016 (≈ 0.0412 µM) | 4 (≈ 10.3 µM) | 4 (≈ 10.3 µM) | 2 (≈ 5.15 µM) | 0.5 (≈ 1.29 µM) | MIC [12]: 2 µg/mL (≈ 5.15 µM); MIC [13]: 0.5 µg/mL (≈ 1.29 µM); MIC (strain #23 Serratia marcescens): 1 µg/mL (≈ 2.57 µM); MIC (strain #24 Serratia marcescens): 1 µg/mL (≈ 2.57 µM); MIC [14]: 0.5 µg/mL (≈ 1.29 µM); MIC (strain #26 Shigella sonnei): 0.5 µg/mL (≈ 1.29 µM); MIC (strain #27 Shigella flexneri): 0.25 µg/mL (≈ 0.644 µM); MIC [15]: 0.5 µg/mL (≈ 1.29 µM); MIC [16]: 8 µg/mL (≈ 20.6 µM); MIC [17]: 8 µg/mL (≈ 20.6 µM); MIC [18]: 2 µg/mL (≈ 5.15 µM); MIC [19]: 4 µg/mL (≈ 10.3 µM); MIC [20]: 8 µg/mL (≈ 20.6 µM); MIC [21]: 8 µg/mL (≈ 20.6 µM); MIC [22]: 8 µg/mL (≈ 20.6 µM); MIC [23]: 32 µg/mL (≈ 82.4 µM)
C[C@@H](O)C1C(=O)N2C(C(=O)O)=C(CN3CC[C@H](CNC(=N)N)C3)[C@H](C)C12 (stereo partly shown) [Compound 99] | 0.25 (≈ 0.684 µM) | 1 (≈ 2.74 µM) | 2 (≈ 5.47 µM) | 2 (≈ 5.47 µM) | 0.5 (≈ 1.37 µM) | 1 (≈ 2.74 µM) | 2 (≈ 5.47 µM) | 0.5 (≈ 1.37 µM) | 1 (≈ 2.74 µM) | 0.5 (≈ 1.37 µM) | 0.5 (≈ 1.37 µM) | 0.5 (≈ 1.37 µM) | 1 (≈ 2.74 µM) | 2 (≈ 5.47 µM) | 1 (≈ 2.74 µM) | ≤ 0.008 | 4 (≈ 10.9 µM) | 4 (≈ 10.9 µM) | 2 (≈ 5.47 µM) | 1 (≈ 2.74 µM) | MIC [12]: 4 µg/mL (≈ 10.9 µM); MIC [13]: 1 µg/mL (≈ 2.74 µM); MIC (strain #23 Serratia marcescens): 2 µg/mL (≈ 5.47 µM); MIC (strain #24 Serratia marcescens): 4 µg/mL (≈ 10.9 µM); MIC [14]: 1 µg/mL (≈ 2.74 µM); MIC (strain #26 Shigella sonnei): 1 µg/mL (≈ 2.74 µM); MIC (strain #27 Shigella flexneri): 1 µg/mL (≈ 2.74 µM); MIC [15]: 0.25 µg/mL (≈ 0.684 µM); MIC [16]: 2 µg/mL (≈ 5.47 µM); MIC [17]: 2 µg/mL (≈ 5.47 µM); MIC [18]: 1 µg/mL (≈ 2.74 µM); MIC [19]: 4 µg/mL (≈ 10.9 µM); MIC [20]: 4 µg/mL (≈ 10.9 µM); MIC [21]: 4 µg/mL (≈ 10.9 µM); MIC [22]: 4 µg/mL (≈ 10.9 µM); MIC [23]: > 32 µg/mL
